In article PMC12518639, “Apomorphine is a novel necroptosis inhibitor targeting mixed lineage kinase domain-like protein oligomerization” (Cell Death Discovery, 2025):

Test system: p-MLKL
Assay: Western blot of phosphorylated MLKL in whole cell lysates
Type: cell-based, human
Conditions: 8 h
Procedure: To identify potential inhibitors of the necroptosis pathway targeting MLKL or the process of p-MLKL pore formation on the membrane, we screened a library of 2150 compounds, including FDA-approved drugs and those in phase 1–3 clinical trials, using THP-1-HMGB1-Lucia™ cells expressing the HMGB1-luciferase fusion protein. The cells were treated with a necroptosis-inducing mixture containing TNF-α, BV6, and Z-VAD-FMK (TBZ) in addition to the compound library (Fig. 1A). The supernatants were harvested to measure luciferase activities for necroptosis. The luciferase activities of cell supernatants treated with TBZ alone were considered as the maximum release (100%) of HMGB1-luciferase. NEC-1, a known RIP1 inhibitor used in both humans and mice, was used as a positive control. […] Next, we performed a propidium iodide (PI) uptake assay to exclude cytotoxic compounds using THP-1 cells. Then, we selected candidate molecules that were arbitrarily less than 30% of those treated with TBZ. […] Next, the inhibition levels of p-MLKL were tested to select MLKL-targeting molecules (Figs. 1C and S1A). Compounds that reduced p-MLKL levels to less than 30% of TBZ-treated controls were considered as potential inhibitors of MLKL phosphorylation. Conversely, compounds that maintained p-MLKL levels above 70% were selected because they are presumed to prevent the formation of pores in the plasma membrane by interfering with oligomerization.
The cells were harvested and lysed in 1× RIPA buffer (R4100-010, GenDEPOT, Katy, TX, USA) containing protease (P3100-001, GenDEPOT) and phosphatase (1862495, Thermo Fisher Scientific) inhibitors. WCLs were then centrifuged at 20,000×g for 30 min at 4 °C and subjected to non-reducing or reducing 8–12% SDS-PAGE gel electrophoresis. The membrane was blocked with 5% non-fat milk in TBS and probed with antibodies. Antibodies to hMLKL (14993S), mMLKL (97705S), phospho-hMLKL (Ser358) (91689S), phospho-mMLKL (Ser345) (37333S), phospho-hRIP1 (Ser166) (65746S), mRIP1 (3493S), phospho-mRIP1 (Ser321) (38662S), phospho-hRIP3 (Ser227) (93654), mRIP3 (95702S), p-mRIP3 (Thr231/Ser232) (91702S), and LDH (2012S) (Cell Signaling Technology, Danvers, MA, USA), and GAPDH (LF-PA0018, Abfrontier, S. Korea), hRIP1 (ab72139, Abcam, Cambridge, UK), hRIP3 (sc-135170, Santa Cruz Biotechnology, Dallas, TX, USA), HMGB1 (ab78923, Abcam), and LAMP1 (ab24170, Abcam) antibodies were used.
Fig. S1 Assessment of p-MLKL inhibition to identify MLKL-targeting molecules. (A) Quantification graph corresponding to Fig. 1C. […] Whole-cell lysates (WCLs) were collected and subjected to Western blot analysis under reducing conditions using antibodies against p-MLKL, MLKL, and GAPDH. The p-MLKL/MLKL ratio was quantified and compared to that of TBZ-treated cells. Data represent the mean of three independent experiments. (B) Quantification graph corresponding to Fig. 1D. […] Cytosolic and membrane fractions were collected and analyzed by Western blot under reducing conditions. The levels of p-MLKL and p-RIP1 were normalized to LDH (cytosolic marker) and LAMP1 (membrane marker), respectively. Quantified ratios were compared to those of TBZ-treated cells (n = 3 independent experiments).

CN1CCc2cccc3c2[C@@H]1Cc1ccc(O)c(O)c1-3 [S62, (6aS)-6-methyl-5,6,6a,7-tetrahydro-4H-dibenzo[de,g]quinoline-10,11-diol]
activity at 20 µM (Homo sapiens, THP-1, TBZ and 20 μM compound, whole cell lysates, read-out: p-MLKL/MLKL ratio relative to TBZ-treated cells (% Value)): 100%
effect on p-MLKL, p-RIP3 and p-RIP1 in whole cell lysates (THP-1, TBZ, 20 μM): little to no effect
